Structures are written as SMILES. Counter-ions that a name gives are not always drawn.

Drawing on the supplement of paper PMC10290057, this text covers AC50 cell viability and efficacy for 24 compounds.

The subject of assay [1] is HCT116. Nature of the assay: AC50 cell viability (CellTiter-Glo); higher = less potent. Conditions: 48 h. (In general: ATP-based viability assays read luminescence as a measure of living cells.)
For assay [2], the system named is HCT116. The assay is described as follows: efficacy (fitted maximal change in viability relative to DMSO control); higher = less cytotoxic (negative = loss of viability). Conditions: 48 h.
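Throughout, for AC50 cell viability (CellTiter-Glo): HCT116 colorectal carcinoma cells screened at five concentrations per compound, luminescent viability scaled between DMSO wells and empty wells on each plate, curves fitted per compound.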
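Throughout, for efficacy (fitted maximal change in viability relative to DMSO control): Luminescence-based viability readout, five doses per compound, normalized against on-plate DMSO and empty-well controls, followed by dose-response curve fitting for every drug.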

`[O-][n+]1cccc(-c2nc3c(Cl)cccc3cc2[C@@H](Nc2ncnc3cccnc23)C(F)(F)F)c1` [Seletalisib]: in the assay on HCT116 [1], the AC50 cell viability came out at 18.6 µM. In addition, the efficacy in the assay on HCT116 [2] was -49.3%.
In the assay on HCT116 [1], `CC[C@H](CO)Nc1nc(NCc2ccccc2)c2ncn(C(C)C)c2n1` [Seliciclib] yielded an AC50 cell viability of 10.5 µM. Further, the efficacy in the assay with HCT116 [2] was -84.6%.
For `O=C(/C=C\n1cnc(-c2cc(C(F)(F)F)cc(C(F)(F)F)c2)n1)NNc1cnccn1` [Selinexor] the same measures were 0.372 µM and -93.1%.
For `Cc1cc(F)c(C(=O)Nc2cccc(-c3nncn3C(C)C)n2)cc1-n1cnc(C2CC2)c1` [Selonsertib] the same measures were 16.6 µM and -73.8%.
For `Cn1cnc2c(F)c(Nc3ccc(Br)cc3Cl)c(C(=O)NOCCO)cc21` [Selumetinib] the same measures were 0.525 µM and -77%.
On to `CN1CCN(C(=O)c2ccc3cc(CCNc4ncnc5ccc(C#N)cc45)ccc3c2)CC1` [Senexin-B], for which, in the assay with HCT116 [1], the AC50 cell viability came to 13.2 µM. In the assay with HCT116 [2], the efficacy is -72.9%.
The corresponding values for `C=C1/C(=C/C=C2\CCCC3(C)[C@@H]([C@H](C)/C=C/C=C/C(O)(CC)CC)CC[C@@H]23)C[C@@H](O)C[C@@H]1O` (stereo partly drawn) [Seocalcitol] are 18.6 µM and -31.2%.
In the assay with HCT116 [1], `COCCn1c2c([n+](Cc3cnccn3)c1C)C(=O)c1ccccc1C2=O` [Sepantronium bromide] came in with an AC50 cell viability of 0.00833 µM. In addition, in the assay with HCT116 [2], the efficacy is -93.8%.
`Nc1nc2cc(-c3ccc4ncc(C(=O)N5CCOCC5)n4c3)ccc2o1` [Serabelisib] displayed an AC50 cell viability in the assay with HCT116 [1] of 4.68 µM. The efficacy in the assay on HCT116 [2] was -53.2%.
The corresponding values for `c1ccc2c(CCNc3ccc(Nc4ccncc4)cc3)c[nH]c2c1` [Serdemetan] are 5.9 µM and -89.6%.
As to `CN[C@H]1CC[C@@H](c2ccc(Cl)c(Cl)c2)c2ccccc21` [Sertraline hydrochloride], the AC50 cell viability in the assay with HCT116 [1] worked out at 20.9 µM. In addition, the efficacy in the assay with HCT116 [2] is -98.8%.
With `O=C(O)c1ccc2c(c1)nc(Nc1cccc(Cl)c1)c1ccncc12` [Silmitasertib], in the assay with HCT116 [1], the AC50 cell viability turned out to be 5.9 µM. Moreover, the efficacy with HCT116 [2] was -87.1%.
For `CN1CCN(c2ncc(-c3cc(Cl)cc(Cl)c3Cl)c(N)n2)CC1` [Sipatrigine] the same measures were 18.6 µM and -74.6%.
For `COCCNCc1ccc(-c2cc3nccc(Oc4ccc(NC(=O)C5(C(=O)Nc6ccc(F)cc6)CC5)cc4F)c3s2)nc1` [Sitravatinib] the same measures were 6.61 µM and -104%.
For `Cc1c(C(=O)Nc2ccc(N3C[C@@H](C)O[C@@H](C)C3)nc2)cccc1-c1ccc(OC(F)(F)F)cc1` [Sonidegib] the same measures were 20.9 µM and -74.9%.
For the compound `CNC(=O)c1cc(Oc2ccc(NC(=O)Nc3ccc(Cl)c(C(F)(F)F)c3)cc2)ccn1` [Sorafenib], in the assay with HCT116 [1], the AC50 cell viability is 9.34 µM. In addition, the efficacy in the assay on HCT116 [2] is -95%.
For `CN1CCN(CC1)C2=NC3=C(C=CC=C3)C(=N2)C/4=C(/C(=O)NC4=O)C5=C[NH]C6=C5C=CC=C6` [Sotrastaurin] the same measures were 23.5 µM and -83.5%.
`Fc1ccc(CNc2ncnc3ccc(F)cc23)cc1` [Spautin-1] had an AC50 cell viability in the assay on HCT116 [1] of 1.48 µM. Besides, in the assay on HCT116 [2], the efficacy was -34.2%.
As for `C=CC(=O)Nc1cccc(Nc2nc(Nc3ccc(OCCOC)cc3)ncc2F)c1` [Spebrutinib (AVL-292)], in the assay on HCT116 [1], the AC50 cell viability is 14.8 µM. In addition, in the assay with HCT116 [2], the efficacy was -107%.
In the assay with HCT116 [1], `NCCCCNCCCN` [Spermidine] yielded an AC50 cell viability of 23.5 µM. Besides, in the assay with HCT116 [2], the efficacy was -78.6%.
In the assay with HCT116 [1], `CO[C@@H]1C(N(C)C(=O)c2ccccc2)C[C@H]2O[C@]1(C)n1c3ccccc3c3c4c(c5c6ccccc6n2c5c31)C(=O)NC4=O` (stereo partly drawn) [Stauprimide] registered an AC50 cell viability of 1.66 µM. The efficacy with HCT116 [2] is -50%.
For `CN[C@@H]1C[C@H]2O[C@@](C)([C@@H]1OC)n1c3ccccc3c3c4c(c5c6ccccc6n2c5c31)C(=O)NC4` [Staurosporine] the same measures were 0.0468 µM and -89.4%.
The corresponding values for `CC(C)n1cnc2c(NCCc3ccc(O)cc3)nc(-c3csc4ccccc34)nc21` [StemRegenin 1] are 18.6 µM and -91.3%.
The corresponding values for `C[C@@H]1O[C@@H](O[C@H]2C[C@@H](O)[C@]3(CO)[C@H]4[C@H](O)C[C@]5(C)[C@H](CC[C@]5(O)[C@@H]4CC[C@]3(O)C2)C/6=C/C(=O)OC6)[C@H](O)[C@H](O)[C@H]1O` [Strophantine octahydrate] are 0.0263 µM and -75.8%.
